Results published in article PMC3743849, “A Yeast-Based Chemical Screen Identifies a PDE Inhibitor That Elevates Steroidogenesis in Mouse Leydig Cells via PDE8 and PDE4 Inhibition” (PLoS ONE, 2013).

Tests used:
recombinant human PDE8A = target: T1, recombinant human PDE8A (Homo sapiens, UniProt O60658); test: In vitro PDE assay (Ba(OH)2 precipitation), PDE8A; type: biochemical; conditions: for IC50: 10 nM cAMP substrate
T1 construct: purchased BPS Bioscience Inc
Procedure: (§1) In vitro PDE assays were performed as previously described, using the Ba(OH)2 precipitation assay, with recombinant human PDE1C, PDE3B, PDE5A1, PDE8A, PDE9A2, PDE10A1, PDE11A4 (BPS Bioscience Inc.), rat PDE2A (BPS Bioscience Inc.), human PDE7A (BIOMOL International), and human PDE4A10 enzymes (gift from Dr. Hengming Ke). Substrate concentrations were 120 nM cGMP (PDE1C), 1 µM cGMP (PDE2A), 30 nM cGMP (PDE3B), 50 nM cAMP (PDE4A), 520 nM cGMP (PDE5A), 10 nM cAMP (PDE7A), 10 nM cAMP (PDE8A), 70 nM cGMP (PDE9A), 40 nM cAMP (PDE10A), and 120 nM cGMP (PDE11A). Reactions were performed in 50 mM Tris·HCl (pH 8.5), 10 mM MgCl2 (for all enzymes except PDE8) or 4 mM MnCl2 (for PDE8A), and 5 mM dithiothreitol, and proceeded for 30 min for PDE8A, 6 min for PDE10A and 15 min for other PDEs, so that reactions were linear with time. Reactions were stopped with 200 µL 0.2 M ZnSO4, after which 5′-AMP was precipitated with 200 µL 0.25 N Ba(OH)2 by centrifugation for 15 min at 14000 rpm. The remaining radioactivity in the supernatant was measured in 4 mL of scintillation fluid. The amount of hydrolysis was generally limited to 30 percent conversion and IC50 values were calculated as the means of three independent experiments. Substrate concentrations were ≤0.1*Km for each enzyme, thus IC50 values approximate the Ki values.

human PDE7A = target: T2, human PDE7A (Homo sapiens, UniProt Q13946); test: In vitro PDE assay (Ba(OH)2 precipitation), PDE7A; type: biochemical; conditions: for IC50: 10 nM cAMP substrate, mean ± SD of three independent experiments
T2 construct: purchased BIOMOL International

recombinant human PDE3B = target: T3, recombinant human PDE3B (Homo sapiens, UniProt Q13370); test: In vitro PDE assay (Ba(OH)2 precipitation), PDE3B; type: biochemical; conditions: 30 nM cGMP substrate; three independent experiments
T3 construct: purchased BPS Bioscience Inc
Procedure: as §1

[1] = target: T4, recombinant human PDE11A4 (Homo sapiens, UniProt Q9HCR9); test: In vitro PDE assay (Ba(OH)2 precipitation), PDE11A; type: biochemical; conditions: 120 nM cGMP substrate; mean ± SD of three independent experiments
T4 construct: purchased BPS Bioscience Inc
Procedure: as §1

MA-10 Leydig tumor cells = test: Progesterone release from MA-10 Leydig tumor cells; type: cell-based, mouse; conditions: 20 µM compound; 2 h
Procedure: MA-10 Leydig tumor cells were maintained in RPMI medium supplemented with 10% horse serum and seeded in 24 well plates to achieve 60–80% confluency after 2–3 days. Cells were washed with serum free medium twice and incubated in a 5% CO2 incubator at 37°C for 2 h. Following incubation, cells were treated with BC8-15, BC8-15A, or BC8-15C by replacing the media with 300 µL RPMI medium containing test compounds or vehicle. Media were collected after incubation for 2 h at 37°C. Progesterone levels in the media were measured using a progesterone ELISA kit (Neogen, Lexington, KY). Protein levels were determined by lysing cells in lysis buffer (50 mM Tris HCl (pH 7.5), 150 mM NaCl, 1% Triton X-100, 2 mM PMSF (supplemented with a Complete Protease Inhibitor Tablet (Roche, Nutley, NJ)) and measuring the protein concentration using a BCA protein assay kit (Pierce, Rockford, IL).

[2] = target: T5, recombinant human PDE10A1 (Homo sapiens, UniProt Q9Y233); test: In vitro PDE assay (Ba(OH)2 precipitation), PDE10A; type: biochemical; conditions: 40 nM cAMP substrate; mean ± SD of three independent experiments
T5 construct: purchased BPS Bioscience Inc
Procedure: as §1

rat PDE2A = target: T6, rat PDE2A (Rattus norvegicus, UniProt Q01062); test: In vitro PDE assay (Ba(OH)2 precipitation), PDE2A; type: biochemical; conditions: 1 µM cGMP substrate; mean ± SD of three independent experiments
T6 construct: purchased BPS Bioscience Inc
T6 sequence (Q01062 1-928): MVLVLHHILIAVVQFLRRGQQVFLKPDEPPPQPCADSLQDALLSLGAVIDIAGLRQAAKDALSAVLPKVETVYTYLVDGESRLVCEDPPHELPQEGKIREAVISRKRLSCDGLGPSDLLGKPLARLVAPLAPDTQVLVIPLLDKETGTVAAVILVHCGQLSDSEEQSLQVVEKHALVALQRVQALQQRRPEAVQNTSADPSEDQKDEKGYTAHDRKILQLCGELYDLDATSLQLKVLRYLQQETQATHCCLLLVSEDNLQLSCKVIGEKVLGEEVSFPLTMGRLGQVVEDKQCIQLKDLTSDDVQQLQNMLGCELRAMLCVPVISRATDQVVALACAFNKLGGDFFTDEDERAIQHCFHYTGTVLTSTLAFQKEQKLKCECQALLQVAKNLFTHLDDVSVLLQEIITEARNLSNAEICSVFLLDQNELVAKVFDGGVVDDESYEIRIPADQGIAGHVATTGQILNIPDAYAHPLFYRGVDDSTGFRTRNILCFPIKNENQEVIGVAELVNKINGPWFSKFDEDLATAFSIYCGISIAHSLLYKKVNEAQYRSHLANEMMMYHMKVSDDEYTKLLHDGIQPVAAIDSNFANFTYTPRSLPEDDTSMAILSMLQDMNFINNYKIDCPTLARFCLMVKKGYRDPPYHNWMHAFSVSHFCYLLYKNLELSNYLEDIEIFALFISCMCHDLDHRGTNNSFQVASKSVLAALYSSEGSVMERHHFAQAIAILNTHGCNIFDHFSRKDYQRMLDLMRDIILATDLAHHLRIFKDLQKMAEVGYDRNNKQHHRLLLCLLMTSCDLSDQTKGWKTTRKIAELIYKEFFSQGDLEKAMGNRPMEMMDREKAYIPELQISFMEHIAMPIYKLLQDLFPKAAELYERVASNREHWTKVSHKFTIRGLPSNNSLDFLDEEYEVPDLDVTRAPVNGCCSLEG
Procedure: as §1

recombinant human PDE5A1 = target: T7, recombinant human PDE5A1 (Homo sapiens, UniProt O76074); test: In vitro PDE assay (Ba(OH)2 precipitation), PDE5A; type: biochemical; conditions: 520 nM cGMP substrate; mean ± SD of three independent experiments
T7 construct: purchased BPS Bioscience Inc
Procedure: as §1

recombinant human PDE9A2 = target: T8, recombinant human PDE9A2 (Homo sapiens, UniProt O76083); test: In vitro PDE assay (Ba(OH)2 precipitation), PDE9A; type: biochemical; conditions: 70 nM cGMP substrate; three independent experiments
T8 construct: purchased BPS Bioscience Inc
Procedure: as §1

recombinant human PDE1C = target: T9, recombinant human PDE1C (Homo sapiens, UniProt Q14123); test: In vitro PDE assay (Ba(OH)2 precipitation), PDE1C; type: biochemical; conditions: 120 nM cGMP substrate; mean ± SD of three independent experiments
T9 construct: purchased BPS Bioscience Inc
Procedure: as §1

human PDE4A10 = target: T10, human PDE4A10 (Homo sapiens, UniProt P27815); test: In vitro PDE assay (Ba(OH)2 precipitation), PDE4A; type: biochemical; conditions: 50 nM cAMP substrate
T10 construct: gift from Dr. Hengming Ke

PDE8 enzymes = tested on: PDE8 enzymes; design: method as in PMID 9671792, PMID 9784418; conditions: ref [6], [11]; cited from earlier work
[3] = tested on: primary Leydig cells from PDE8A−/−/B−/− knock-out mice; test: Testosterone production from primary Leydig cells, PDE8A-/-/B-/- knock-out mice; type: cell-based, mouse; conditions: 3 h, rolipram 20 µM, BC8-15 10 µM and 40 µM
Procedure: (§2) Leydig cells were isolated from testes of wild type and PDE8A^−/−/B^−/− knock-out adult mice as previously described. Digested tissue from decapsulated mouse testis was enriched for interstitial cells by filtration as previously described. Collected cells were resuspended in DMEM/F-12 medium supplemented with 1 mg/mL BSA and 150 µL aliquots were dispensed into 48-well plates. After permitting cells to recover at 37°C for 3 h, 30 µL of media with test compounds or vehicle was added to replicate wells. Media were collected after incubation for 3 h and stored at −20°C. Testosterone released into the media was measured by a testosterone ELISA kit (Neogen, Lexington, KY).

[4] = tested on: primary Leydig cells from wild type mice; test: Testosterone production from primary Leydig cells, wild type mice; type: cell-based, mouse; conditions: 3 h, rolipram 20 µM, BC8-15 10 µM and 40 µM
Procedure: as §2

murine PDE8A1 = tested on: T11, murine PDE8A1; test: Yeast-based 5FOA growth HTS with PDE8A-expressing S. pombe strain CHP1204; type: cell-based; conditions: Known Bioactives Collection screen
T11 construct: expressed in transfected cells; host or cells: Schizosaccharomyces pombe strain CHP1204 (PDE8A1 integrated at the cgs2 locus)
Procedure: Cyclic nucleotide-dependent growth in 5FOA medium was monitored in 50 µL cultures in 384-well microtiter plates (untreated, flat clear bottom). Cells were inoculated at an initial cell density of 0.5–2×10^5 cells/mL. Previously described optimized pre-growth conditions for each strain were used to repress the fbp1-ura4^+ reporter prior to inoculation into 5FOA medium, as cells that are already expressing the Ura4 enzyme would be 5FOA-sensitive even upon exposure to a PDE inhibitor [18]. Following a 48-h incubation at 30°C, plates were vortexed and optical densities (600 nm) were measured. The experiments with the PDE8A-expressing strain (CHP1204) were performed with 0.5 mM cAMP in the pre-growth medium and 40 µM cAMP in the 5FOA medium. […]
The suitability and quality of the assay conditions for high throughput screening was evaluated by a Z factor test as previously described, [23], using DMSO (0.2%) as a negative control, and either 5 mM cAMP, 10 µM BC69, or 20 µM BC69 as positive controls. […] After 48 h growth at 30°C, the optical density (OD600) of each well was measured using a plate reader. Composite Z scores were calculated for each compound by scaling the vector [Zscore_A, Zscore_B] by the cosine correlation with the diagonal (i.e. identical Z-scores in both replicates).

[5] = mean ± SD of three independent experiments

T4 sequence (Q9HCR9 whole entry): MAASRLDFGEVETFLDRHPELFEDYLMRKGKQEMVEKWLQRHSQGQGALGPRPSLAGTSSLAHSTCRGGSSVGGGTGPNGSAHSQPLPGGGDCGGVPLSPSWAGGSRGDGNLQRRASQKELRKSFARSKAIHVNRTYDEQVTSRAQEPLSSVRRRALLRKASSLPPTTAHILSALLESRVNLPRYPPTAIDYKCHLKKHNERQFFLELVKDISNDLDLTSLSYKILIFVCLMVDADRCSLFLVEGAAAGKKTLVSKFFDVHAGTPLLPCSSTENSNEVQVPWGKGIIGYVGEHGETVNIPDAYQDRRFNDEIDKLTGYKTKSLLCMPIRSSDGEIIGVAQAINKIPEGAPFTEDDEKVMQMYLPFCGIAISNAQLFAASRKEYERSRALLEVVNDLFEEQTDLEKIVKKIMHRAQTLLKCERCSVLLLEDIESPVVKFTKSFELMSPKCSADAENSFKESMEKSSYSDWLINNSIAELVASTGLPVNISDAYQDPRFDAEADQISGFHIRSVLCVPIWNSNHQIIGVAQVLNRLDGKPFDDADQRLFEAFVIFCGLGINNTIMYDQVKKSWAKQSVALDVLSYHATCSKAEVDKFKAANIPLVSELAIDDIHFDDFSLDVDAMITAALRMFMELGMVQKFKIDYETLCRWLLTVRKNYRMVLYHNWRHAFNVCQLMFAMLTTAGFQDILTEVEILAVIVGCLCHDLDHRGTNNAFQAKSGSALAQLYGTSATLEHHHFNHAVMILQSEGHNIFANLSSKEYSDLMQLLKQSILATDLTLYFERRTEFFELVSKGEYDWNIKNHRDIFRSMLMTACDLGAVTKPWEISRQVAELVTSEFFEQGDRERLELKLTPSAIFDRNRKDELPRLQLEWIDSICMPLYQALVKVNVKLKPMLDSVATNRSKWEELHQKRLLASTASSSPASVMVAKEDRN
T5 sequence (Q9Y233 1-779 isoform Q9Y233-1): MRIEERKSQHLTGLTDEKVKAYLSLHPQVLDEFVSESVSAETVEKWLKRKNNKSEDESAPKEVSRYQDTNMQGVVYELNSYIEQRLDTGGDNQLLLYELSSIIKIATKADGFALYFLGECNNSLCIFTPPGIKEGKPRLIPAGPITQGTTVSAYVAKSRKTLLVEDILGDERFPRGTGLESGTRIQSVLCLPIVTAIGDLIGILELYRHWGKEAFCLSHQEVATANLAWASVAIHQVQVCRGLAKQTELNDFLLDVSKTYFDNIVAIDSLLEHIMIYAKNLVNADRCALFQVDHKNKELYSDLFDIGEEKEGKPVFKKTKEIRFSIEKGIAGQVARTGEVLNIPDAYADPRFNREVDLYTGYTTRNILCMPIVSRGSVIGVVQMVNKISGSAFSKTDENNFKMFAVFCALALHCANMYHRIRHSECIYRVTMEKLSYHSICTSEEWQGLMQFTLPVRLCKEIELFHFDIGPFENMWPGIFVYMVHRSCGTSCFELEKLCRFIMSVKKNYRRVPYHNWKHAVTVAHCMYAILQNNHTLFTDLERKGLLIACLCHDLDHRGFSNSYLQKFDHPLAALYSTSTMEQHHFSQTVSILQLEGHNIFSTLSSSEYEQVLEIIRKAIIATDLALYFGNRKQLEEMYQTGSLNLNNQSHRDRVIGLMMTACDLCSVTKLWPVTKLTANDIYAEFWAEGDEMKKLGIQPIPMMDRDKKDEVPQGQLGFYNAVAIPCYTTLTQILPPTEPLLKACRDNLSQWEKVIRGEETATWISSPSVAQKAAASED
T2 sequence (Q13946 whole entry): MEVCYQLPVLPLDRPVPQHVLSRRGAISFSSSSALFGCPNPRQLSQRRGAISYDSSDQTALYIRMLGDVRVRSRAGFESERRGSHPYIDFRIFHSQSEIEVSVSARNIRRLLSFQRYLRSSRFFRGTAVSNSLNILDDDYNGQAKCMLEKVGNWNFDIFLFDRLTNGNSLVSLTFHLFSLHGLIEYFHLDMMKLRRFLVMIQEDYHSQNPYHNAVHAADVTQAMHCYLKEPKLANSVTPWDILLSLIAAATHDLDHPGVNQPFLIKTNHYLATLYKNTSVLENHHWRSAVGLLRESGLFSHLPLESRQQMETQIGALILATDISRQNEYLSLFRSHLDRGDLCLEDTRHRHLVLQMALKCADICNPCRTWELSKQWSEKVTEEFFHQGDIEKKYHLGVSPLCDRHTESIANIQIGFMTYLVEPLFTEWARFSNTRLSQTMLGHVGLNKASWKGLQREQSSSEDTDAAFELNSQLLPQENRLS
T9 sequence (Q14123 whole entry): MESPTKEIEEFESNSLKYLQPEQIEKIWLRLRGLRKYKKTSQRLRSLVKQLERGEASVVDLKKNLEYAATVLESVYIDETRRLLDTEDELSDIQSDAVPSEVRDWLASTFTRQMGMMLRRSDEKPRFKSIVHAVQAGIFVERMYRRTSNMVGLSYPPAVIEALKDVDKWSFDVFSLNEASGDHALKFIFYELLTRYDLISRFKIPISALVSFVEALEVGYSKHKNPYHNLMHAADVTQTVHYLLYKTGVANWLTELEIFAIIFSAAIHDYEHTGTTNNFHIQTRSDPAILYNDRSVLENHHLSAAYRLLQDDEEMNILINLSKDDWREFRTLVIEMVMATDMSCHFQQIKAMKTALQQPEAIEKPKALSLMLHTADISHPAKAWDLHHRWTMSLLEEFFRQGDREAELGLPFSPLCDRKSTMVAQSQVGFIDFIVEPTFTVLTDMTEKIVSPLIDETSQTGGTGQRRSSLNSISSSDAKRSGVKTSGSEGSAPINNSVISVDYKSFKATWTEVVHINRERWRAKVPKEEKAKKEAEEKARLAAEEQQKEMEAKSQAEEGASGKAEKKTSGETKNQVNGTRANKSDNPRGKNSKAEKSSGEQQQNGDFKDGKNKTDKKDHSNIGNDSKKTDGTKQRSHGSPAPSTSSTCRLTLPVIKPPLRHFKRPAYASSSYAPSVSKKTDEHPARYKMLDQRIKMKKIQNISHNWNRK
T3 sequence (Q13370 whole entry): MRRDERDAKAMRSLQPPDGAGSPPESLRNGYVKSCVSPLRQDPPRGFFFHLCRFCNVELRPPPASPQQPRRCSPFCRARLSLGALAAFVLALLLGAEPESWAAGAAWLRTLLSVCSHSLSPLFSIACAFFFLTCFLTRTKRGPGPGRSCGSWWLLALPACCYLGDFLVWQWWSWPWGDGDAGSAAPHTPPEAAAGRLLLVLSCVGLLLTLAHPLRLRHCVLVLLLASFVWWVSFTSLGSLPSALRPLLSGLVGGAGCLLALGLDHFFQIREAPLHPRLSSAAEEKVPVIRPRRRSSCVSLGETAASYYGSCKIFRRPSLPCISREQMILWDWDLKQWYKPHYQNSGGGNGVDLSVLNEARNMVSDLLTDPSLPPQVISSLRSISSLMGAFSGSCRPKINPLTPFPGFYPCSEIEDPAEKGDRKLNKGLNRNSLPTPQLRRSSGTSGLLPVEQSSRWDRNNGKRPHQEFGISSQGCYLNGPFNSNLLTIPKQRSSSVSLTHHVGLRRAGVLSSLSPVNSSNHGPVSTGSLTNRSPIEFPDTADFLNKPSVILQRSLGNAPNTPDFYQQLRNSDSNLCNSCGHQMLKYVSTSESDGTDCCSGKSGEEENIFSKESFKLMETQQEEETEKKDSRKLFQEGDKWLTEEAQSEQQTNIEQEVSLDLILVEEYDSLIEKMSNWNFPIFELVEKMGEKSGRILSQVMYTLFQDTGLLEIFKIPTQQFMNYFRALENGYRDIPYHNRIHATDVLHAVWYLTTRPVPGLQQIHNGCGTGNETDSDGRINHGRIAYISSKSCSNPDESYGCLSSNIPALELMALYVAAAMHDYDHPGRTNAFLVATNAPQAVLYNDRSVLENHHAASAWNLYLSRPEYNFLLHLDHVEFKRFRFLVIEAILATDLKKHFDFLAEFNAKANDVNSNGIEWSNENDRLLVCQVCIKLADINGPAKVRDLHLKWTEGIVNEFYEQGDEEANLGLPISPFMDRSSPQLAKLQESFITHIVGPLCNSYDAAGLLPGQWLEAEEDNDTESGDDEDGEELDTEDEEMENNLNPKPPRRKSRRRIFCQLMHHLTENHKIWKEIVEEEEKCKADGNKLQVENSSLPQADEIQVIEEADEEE
T8 sequence (O76083 1-533 isoform O76083-2): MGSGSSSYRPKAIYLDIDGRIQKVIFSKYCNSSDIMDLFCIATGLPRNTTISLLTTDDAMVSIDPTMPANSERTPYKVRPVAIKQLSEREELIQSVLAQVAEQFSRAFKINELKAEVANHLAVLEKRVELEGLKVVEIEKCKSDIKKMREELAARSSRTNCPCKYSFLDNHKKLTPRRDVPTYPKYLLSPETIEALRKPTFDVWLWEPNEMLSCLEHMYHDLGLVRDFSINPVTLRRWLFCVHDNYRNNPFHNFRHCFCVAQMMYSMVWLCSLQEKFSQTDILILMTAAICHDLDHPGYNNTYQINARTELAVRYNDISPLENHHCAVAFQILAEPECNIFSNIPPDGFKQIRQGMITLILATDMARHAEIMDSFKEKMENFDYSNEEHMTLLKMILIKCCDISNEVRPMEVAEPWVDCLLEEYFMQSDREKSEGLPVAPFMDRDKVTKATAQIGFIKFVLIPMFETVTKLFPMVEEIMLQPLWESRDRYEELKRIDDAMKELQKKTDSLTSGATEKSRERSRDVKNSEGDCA

SMILES | IC50 (human PDE7A) | IC50 (recombinant human PDE3B) | IC50 [1] | increase in progesterone release compared to untreated cells (MA-10 Leydig tumor cells) | IC50 [2] | IC50 (rat PDE2A) | IC50 (recombinant human PDE5A1) | IC50 (recombinant human PDE9A2) | IC50 (recombinant human PDE1C) | further results
CCc1nnc2c3ccccc3nc(Nc3cccc(C)c3)n12 [BC8-15C] | 14.2 ± 6.4 µM | > 20 µM | 0.08 ± 0.05 µM | little or no effect | 1.5 ± 1.2 µM | > 20 µM | > 20 µM | > 20 µM | > 20 µM | IC50 (recombinant human PDE8A; [5]): 59.3 ± 14.2 µM
Cc1nnc2c3ccccc3nc(Nc3cccc(C(=O)O)c3)n12 [BC8-15A] | 8.88 ± 3.9 µM | > 20 µM | 1 µM | five-fold | 2.3 ± 0.7 µM | 5.2 ± 2 µM | > 20 µM | > 20 µM | > 20 µM | IC50 (recombinant human PDE8A; [5]): 1.59 ± 0.3 µM; IC50 (human PDE4A10; [5]): 1.59 ± 0.1 µM
CC(C)Cn1c(=O)n(C)c(=O)c2[nH]cnc21 [3-isobutyl-1-methylxanthine (IBMX), 3-isobutyl-1-methylxanthine] |  |  |  |  |  |  |  |  |  | sensitivity of PDE8 enzymes to inhibitor (PDE8 enzymes): insensitive
COc1ccc(C2CNC(=O)C2)cc1OC1CCCC1 (stereo not shown) [rolipram, reference compound] |  |  |  | little or no effect |  |  |  |  |  | increase in testosterone production [3]: two-fold increase; testosterone release [4]: no response
OCCN(CCO)c1nc(N2CCCCC2)c2nc(N(CCO)CCO)nc(N3CCCCC3)c2n1 [dipyridamole] |  |  |  |  |  |  |  |  |  | activity in PDE8A yeast growth screen (murine PDE8A1): no activity; sensitivity of PDE8 enzymes to inhibitor (PDE8 enzymes): only weakly inhibited
CCc1nnc2c3ccccc3nc(Nc3cccc(C(=O)O)c3)n12 [BC8-15] | 6.46 µM | > 20 µM | 1.2 ± 0.7 µM | > 10 fold | 1.6 ± 0.2 µM | 15.7 ± 2.7 µM | 16.7 ± 2.3 µM | > 20 µM | 8.4 ± 3 µM | IC50 (recombinant human PDE8A): 0.28 µM; increase in testosterone production [3]: two-fold increase; testosterone release [4]: dose-dependent elevation; fold less activity against PDE7A (vs PDE8A/PDE4A) (human PDE7A; ratio of IC50 values): 23 fold; IC50 (human PDE4A10): 0.22 µM
C[C@]12CC[C@H](O)C[C@@H]1CC[C@@H]1[C@@H]2CC[C@]2(C)C(=O)CC[C@@H]12 [epiandrosterone, reference compound] |  |  |  |  |  |  |  |  |  | inhibition at 32 µM (recombinant human PDE8A; 32 µM compound, data not shown): 17%; composite Z score, 5FOA-resistant growth of PDE8A1-expressing strain (murine PDE8A1; 40 µM cAMP in 5FOA medium, 48 h): 12.9
